Assay results: patent US20240208972A1, “LRRK2 INHIBITORS AND USES THEREOF” (NEURON23, INC., priority 2022, published 2024)

Assay: Brain penetration (Kp,uu) in CD-1 mice, with plasma and brain tissue binding by equilibrium dialysis
Type: in vivo
Settings: mouse, brain and plasma (unbound), male CD-1 mice, single IV bolus 1 mg/kg
Protocol: The compounds disclosed herein were tested on CD-1 mice for brain penetration (Kp, uu) according to the following procedures.
Nine male CD-1 mice were administered TEST COMPOUND by single intravenous bolus administration at 1 mg/kg. The vehicle used for IV study was 5% DMSO, 5% solutol, 20% PEG300 and 70% water. The detailed dosing and sampling regimens are described in the following tables.
1.0 mg of test compound was accurately weighed into a glass vial, and slowly added with 104 μL of DMSO and vortexed for 1 min. Then 104 μL of solutol was added and vortexed for 1 min. Then 415 μL of PEG300 was added and vortexed for 1 min. Then 1000 μL of water was added and vortexed for 1 min. Finally, 451 μL of water was added and vortexed for 1 min to get a clear solution.
The body weights were in the range from 28.81 to 31.25 g for males on the first dosing day. All animals received a single intravenous bolus administration of TEST COMPOUND from the tail vein.
Each blood collection (about 0.06 mL per time point) was performed from saphenous vein of each animal into pre-chilled commercial K2-EDTA tubes as anti-coagulant and placed on wet ice until centrifugation.
Plasma samples were then prepared by centrifuging the blood samples at approximately 4° C., 3200×g for 10 minutes. All plasma samples were then quickly frozen over dry ice and kept at −60° C. or lower until LC-MS/MS analysis.
Brain tissue was homogenized using homogenizing buffer (15 mM PBS (pH7.4): MeOH=2:1) at the ratio of 1:9 (1 g tissue with 9 mL buffer, the dilution ratio is 10). The tissue homogenate was kept at −60° C. or lower until LC-MS/MS analysis.
The concentrations of TEST COMPOUND in plasma and brain were determined by using an LC-MS/MS method.
The plasma and brain concentration of TEST COMPOUND in study animals was subjected to a non-compartmental pharmacokinetic analysis by using the Phoenix WinNonlin software program (version 6.3 or above, Pharsight). The linear/log trapezoidal rule was applied in obtaining the PK parameters.
Individual plasma and brain concentration values that were below the lower limit of quantitation (LLOQ) were excluded from the PK parameter calculation. The nominal dose levels and nominal sampling times were used in the calculation of all pharmacokinetic parameters.
Mouse Kp, uu=(% free in mouse brain*concentration in mouse brain)/(% free in mouse plasma*concentration in mouse plasma)
The dialysis apparatus was assembled according to the manufacturer's instruction. Each Cell was filled with 120 μL of spiked plasma sample and dialyzed against equal volume of dialysis buffer (PBS). The assay was performed in duplicate. The dialysis plates were sealed and incubated in an incubator at 37° C. with 5% CO2 and rotated at 100 rpm for 6 hours. At the end of incubation, the seals were removed and 50 μL of samples from both buffer and plasma chambers were transferred to a 96-well plate.
All calculations were carried out using Microsoft Excel. The concentrations of test compound and control compound in the buffer and plasma chambers were determined from peak area ratios (PAR) of analyte to internal standard. Protein binding (% unbound and % bound) and recovery (% recovery) of test and control compounds was calculated as follows:
• 1. Thawing of the frozen brain (stored at −80° C.) • Frozen brain tissue was thawed at room temperature in a bath. Only brain tissue was used that was thawed no more than once. • 2. Preparation of brain tissue homogenate • Brain tissue homogenate was prepared by diluting one quantity (g) of the whole brain tissue with three volumes (mL) of buffer (PBS, pH 7.4) and homogenizing the mixture using a tissue homogenizer. Brain tissue homogenate was frozen at −80° C. for later use/comparison. • 3. Preparation of working solutions • The working solutions of test compound and the control compound propranolol were prepared in dimethyl sulfoxide (DMSO) at the concentration of 200 μM. […]

Row | Compound | Kp uu
1 | [2H]C([2H])([2H])c1n[nH]c2c1N=C(c1c(F)cccc1F)Nc1ccc(N3CCO[C@@H](C)C3)cc1-2 [Example 34, (2S)-4-[5-(2,6-difluorophenyl)-3-(trideuteriomethyl)-1,6-dihydropyrazolo[4,3-d][1,3]benzodiazepin-9-yl]-2-methyl-morpholine] | 0.2 to 0.4
2 | Cc1n[nH]c2c1N=C(c1c(F)cccc1F)Nc1c-2cc(N2CC3(CCOCC3)C2)nc1C [Example 47, 2-[8-(2,6-difluorophenyl)-5,11-dimethyl-3,4,7,9,12-pentazatricyclo[8.4.0.02,6]tetradeca-1(10),2(6),4,7,11,13-hexaen-13-yl]-7-oxa-2-azaspiro[3.5]nonane] | 0.2 to 0.4
3 | Cc1n[nH]c2c1N=C(c1c(F)cc(F)cc1F)Nc1ccc(N3CCOCC3)cc1-2 [Example 27, 4-[3-methyl-5-(2,4,6-trifluorophenyl)-1,6-dihydropyrazolo[4,3-d][1,3]benzodiazepin-9-yl]morpholine] | 0.2 to 0.4

More lines, now with the values ahead:

Row | Kp uu | Compound
4 | 0.2 to 0.4 | Cc1n[nH]c2c1N=C(c1c(F)cccc1F)Nc1cnc(C#CC3(C)CCOCC3)cc1-2 [Example 17, 8-(2,6-difluorophenyl)-5-methyl-13-[2-(4-methyltetrahydropyran-4-yl)ethynyl]-3,4,7,9,12-pentazatricyclo[8.4.0.02,6]tetradeca-1(10),2(6),4,7,11,13-hexaene]
5 | < 0.2 | Cc1n[nH]c2c1N=C(c1c(F)cccc1F)Nc1cnc(-c3ccn(C(F)F)n3)cc1-2 [Example 12, 13-[1-(difluoromethyl)pyrazol-3-yl]-8-(2,6-difluorophenyl)-5-methyl-3,4,7,9,12-pentazatricyclo[8.4.0.02,6]tetradeca-1(10),2(6),4,7,11,13-hexaene]
